According to publication PMC5957473, “Small Molecule Neuropilin-1 Antagonists Combine Antiangiogenic and Antitumor Activity with Immune Modulation through Reduction of Transforming Growth Factor Beta (TGFβ) Production in Regulatory T-Cells” (Journal of Medicinal Chemistry, 2018):
Blank lines part the entries; values can stand above or below the compound they belong to.

Assays:
NRP1 = test system: NRP1; parameters: method as in PMID 20151671; details: read-out: IC50, inhibition of bt-VEGF-A binding to NRP1; cited from earlier work
HUVEC cells [1] = test system: HUVEC cells; parameters: method as in PMID 20151671; details: 100 μM in combination with VEGF-A; cited from earlier work
NRP1-b1 = target: T1, NRP1-b1 (Homo sapiens, UniProt O14786); test: SPR equilibrium binding assay (Biacore 4000), immobilised NRP1-b1; details: equilibrium (steady-state) binding, 25 °C, average ± SD of high and low density surfaces
T1 construct: His6 (TEV protease-cleavable) (N); made in house; host or cells: Escherichia coli Rosetta Gami 2 (DE3) pLysS
T1 sequence (O14786 273-427): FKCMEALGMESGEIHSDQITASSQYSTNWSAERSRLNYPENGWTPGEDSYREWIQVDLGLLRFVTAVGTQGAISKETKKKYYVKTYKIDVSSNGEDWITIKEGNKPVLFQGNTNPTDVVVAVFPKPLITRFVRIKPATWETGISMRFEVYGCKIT
Procedure: All the compounds were evaluated using an SPR binding assay (Biacore) where recombinant NRP1-b1b2 protein was immobilized on a dextran coated chip.[23] Selected compounds were then evaluated in competitive binding assay systems using biotinylated VEGF. […] This encouraging result prompted us to conduct a more focused structure–activity study around the 10a structure.
Surface plasmon resonance experiments were performed using a Biacore 4000 instrument at 25 °C. Sensor chips, buffer stock solutions, and immobilization reagents were from GE Healthcare. Recombinant human NRP1-b1 was as above. Other reagents were obtained from Sigma. Immobilization: PBS (containing 0.05% surfactant P20) was used as the running buffer. The four flow cells were treated in the same way to optimize throughput. In summary, using a CM5 chip spots 1 and 2 were activated with the coupling reagents EDC and NHS for 10 min. NRP1-b1 at a concentration of 20 μg/mL in 10 mM sodium acetate pH 5 was injected onto the surface for 10 and 5 min in spots 1 and 2, respectively, to generate surfaces with high and low density. The immobilization levels ranged from 2302 to 1823 RU on spot 1 and from 948 to 1112 RU in spot 2. The unmodified spot 3 was used as a reference. […] Dose–responses were obtained using a 2-fold sample dilution from 16 μM to 31 nM, using an injection time of 60 s. Surface regeneration between injections was not necessary, but a wash step with 1 M NaCl was included after injection of the highest concentration sample for each compound. Data processing: Binding curves were corrected for variations in DMSO concentration and normalized by molecular weight. Binding results to high and low-density surfaces were processed independently and the average ± SD is presented. KDs reported are derived from steady-state binding responses and therefore correspond to the equilibrium binding affinity of the compounds.

[2] = IV pharmacokinetics in mice; type: in vivo; details: for half-life: 2 mg/kg
Procedure: To test compound drug-like properties, selected compounds with low IC50 were further tested for pharmacokinetics (PK) profile. First, 6–8 week-old BABL/c female mice were used, then 2 mg/kg of compounds was formulated in 7.5% DMSO and 92.5% solution and intravenously dosed from the tail vein as a bolus. Blood samples were collected by cardiac puncture at 5, 15, 30, 60, 180, and 240 min post dosing. Plasma samples were prepared by centrifugation at 7000 rpm for 5 min, and supernatants were collected, immediately snap-frozen on dry ice, and stored at −20C. Samples were analyzed by liquid chromatography–tandem mass spectrometry using electrospray ionization and data was analyzed by WinNonlin software.

Nrp1+ Tregs = test: TGFβ production by Nrp1+ Tregs exposed to glioma conditioned media (ELISA); type: cell-based, mice; details: 500 nM pretreatment 2 h, GCM 12 h
[3] = test system: A375P (malignant melanoma) cells; test: 3D spheroid invasion assay; type: cell-based
HUVEC cells [4] = test: Transwell migration (chemotaxis) of HUVEC cells toward VEGF-A; type: cell-based, human; details: 30 μM, no VEGF-A
DU145/cells.Ad.NRP1 = target: T2, DU145/cells.Ad.NRP1 (Homo sapiens, UniProt O14786); test: Cell-based competition binding with bt-VEGF in DU145 cells infected with adenovirus expressing WT NRP1; details: HS value in brackets beside IC50
T2 construct: expressed in transfected cells; host or cells: DU145 prostate cancer cells (ATCC) infected with adenovirus

NRP2 = target: T3, NRP2 (Homo sapiens, UniProt O60462); test: SPR single-cycle binding to NRP2 (Biacore T200); details: 62.5 – 1000 nM, NRP2 His tagged and NRP2-Fc chimera
T3 sequence (O60462 23-802 limits assumed): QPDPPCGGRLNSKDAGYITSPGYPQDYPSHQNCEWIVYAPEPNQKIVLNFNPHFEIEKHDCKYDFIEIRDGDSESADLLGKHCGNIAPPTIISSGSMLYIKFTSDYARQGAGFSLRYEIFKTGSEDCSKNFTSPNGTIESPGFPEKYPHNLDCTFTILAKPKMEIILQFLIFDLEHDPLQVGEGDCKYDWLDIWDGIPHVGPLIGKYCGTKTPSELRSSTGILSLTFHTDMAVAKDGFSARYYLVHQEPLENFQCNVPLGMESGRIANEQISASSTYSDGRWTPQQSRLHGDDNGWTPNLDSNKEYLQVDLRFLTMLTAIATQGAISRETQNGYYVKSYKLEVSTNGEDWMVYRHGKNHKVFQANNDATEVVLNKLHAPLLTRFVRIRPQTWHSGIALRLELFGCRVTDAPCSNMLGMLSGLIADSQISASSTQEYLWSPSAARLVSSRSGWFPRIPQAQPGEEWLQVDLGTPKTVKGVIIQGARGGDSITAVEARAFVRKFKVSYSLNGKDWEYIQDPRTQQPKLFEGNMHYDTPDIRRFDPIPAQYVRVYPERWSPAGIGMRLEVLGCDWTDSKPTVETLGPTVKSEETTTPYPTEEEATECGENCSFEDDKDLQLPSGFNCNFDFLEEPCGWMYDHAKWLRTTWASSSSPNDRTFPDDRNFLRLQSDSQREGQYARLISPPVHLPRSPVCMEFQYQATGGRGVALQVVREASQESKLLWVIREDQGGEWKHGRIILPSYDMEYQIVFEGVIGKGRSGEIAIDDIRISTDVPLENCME

HUVEC cells [5] = test: Wound healing scratch assay; type: cell-based, human; details: 30 μM + VEGF-A 25 ng/mL, 1% EGM
[6] = female, BABL/c (so in the source); BALB/c), mouse, plasma, IV bolus 2 mg/kg

T2 sequence (O14786 22-923): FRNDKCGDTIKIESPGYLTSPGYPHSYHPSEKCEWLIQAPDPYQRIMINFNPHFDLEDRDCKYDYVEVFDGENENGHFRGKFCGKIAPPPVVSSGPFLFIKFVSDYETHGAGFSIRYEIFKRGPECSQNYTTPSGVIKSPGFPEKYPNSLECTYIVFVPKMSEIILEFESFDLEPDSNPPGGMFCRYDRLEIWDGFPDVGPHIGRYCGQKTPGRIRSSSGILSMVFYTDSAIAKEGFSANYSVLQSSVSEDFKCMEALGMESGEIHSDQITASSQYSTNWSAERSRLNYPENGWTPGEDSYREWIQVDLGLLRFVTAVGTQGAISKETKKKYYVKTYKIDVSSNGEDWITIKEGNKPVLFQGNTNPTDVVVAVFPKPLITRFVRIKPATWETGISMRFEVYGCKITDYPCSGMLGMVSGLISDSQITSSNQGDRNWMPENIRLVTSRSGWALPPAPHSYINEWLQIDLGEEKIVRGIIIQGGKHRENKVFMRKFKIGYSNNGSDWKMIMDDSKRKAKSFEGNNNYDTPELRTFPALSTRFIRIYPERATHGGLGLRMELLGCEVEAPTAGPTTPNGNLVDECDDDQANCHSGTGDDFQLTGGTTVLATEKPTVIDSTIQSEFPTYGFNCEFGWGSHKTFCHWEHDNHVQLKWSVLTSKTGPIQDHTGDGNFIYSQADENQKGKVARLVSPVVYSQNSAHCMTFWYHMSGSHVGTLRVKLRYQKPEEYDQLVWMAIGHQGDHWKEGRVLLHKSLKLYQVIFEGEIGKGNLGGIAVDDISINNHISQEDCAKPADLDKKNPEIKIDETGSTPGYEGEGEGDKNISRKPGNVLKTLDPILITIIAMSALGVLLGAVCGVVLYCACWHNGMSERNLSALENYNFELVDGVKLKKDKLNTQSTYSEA

Compound: N=C(N)NCCC[C@H](NC(=O)c1sccc1NS(=O)(=O)c1cccc2nsnc12)C(=O)O [EG00229, (S)-2-(3-(benzo[c][1,2,5]thiadiazole-4-sulfonamido)thiophene-2-carboxamido)-5-((diaminomethylene)amino)pentanoic acid]
IC50 (NRP1): 8 µM | reduction of migration (previously reported) (HUVEC cells [1]): ≈ 34%

Compound: N=C(N)NCCC[C@H](NC(=O)c1sccc1NS(=O)(=O)c1cc(-c2ccccc2CNCc2ncc[nH]2)cc2c1OCC2)C(=O)O [9b, N2-(3-((5-(2-((((1H-Imidazol-2-yl)methyl)amino)methyl)phenyl)-2,3-dihydrobenzofuran)-7-sulfonamido)thiophene-2-carbonyl)-Nω-((2,2,4,6,7-pentamethyl-2,3-dihydrobenzofuran-5-yl)sulfonyl)-L-arginine]
Kd (NRP1-b1): 1.77 ± 0.1 µM

Compound: N=C(N)NCCC[C@H](NC(=O)c1sccc1NS(=O)(=O)c1cc(-c2ccc(CN)cc2)cc2c1OCC2)C(=O)O [compound 1, (3-((5-(4-(Aminomethyl)phenyl)-2,3-dihydrobenzofuran)-7-sulfonamido)thiophene-2-carbonyl)-L-arginine]
half-life ([2]; female, BABL/c, mouse, plasma, IV): 4.29 h | clearance ([2]; female, BABL/c, mouse, plasma, IV bolus 2 mg/kg): 14 mL/min/kg | effect on GCM-induced production of TGFβ (Nrp1+ Tregs): inhibited the GCM-induced production of TGFβ | effect on A375P spheroid invasion induced by VEGF-A ([3]; 30 μM + VEGF-A 25 ng/mL, 7 days): significantly inhibited invasion induced by VEGF-A | effect on A375P radial invasion, compound alone ([3]; 30 μM, compared to DMSO control): no significant effect on radial invasion | effect on HUVEC migration, compound alone (HUVEC cells [4]): did not influence the migratory ability of these cells | DU145/cells.Ad.NRP1, (HS) (DU145/cells.Ad.NRP1): 0.9 | binding to NRP2 by SPR (NRP2): no detectable NRP2 binding | effect on VEGF-induced wound closure (HUVEC cells [5]): can delay the VEGF-induced wound closure

Compound: N=C(N)NCCC[C@H](NC(=O)c1sccc1NS(=O)(=O)c1cc(-c2ccccc2CNCc2cn[nH]c2)cc2c1OCC2)C(=O)O [9d, N2-(3-((5-(2-((((1H-Pyrazol-4-yl)methyl)amino)methyl)phenyl)-2,3-dihydrobenzofuran)-7-sulfonamido)thiophene-2-carbonyl)-Nω-((2,2,4,6,7-pentamethyl-2,3-dihydrobenzofuran-5-yl)sulfonyl)-L-arginine]
Kd (NRP1-b1): 2.14 ± 0.07 µM

Compound: N=C(N)NCCC[C@H](NC(=O)c1sccc1NS(=O)(=O)c1cc(-c2ccccc2CNCc2ccccn2)cc2c1OCC2)C(=O)O [9e, Nω-((2,2,4,6,7-Pentamethyl-2,3-dihydrobenzofuran-5-yl)sulfonyl)-N2-(3-((5-(2-(((pyridin-2-ylmethyl)amino)methyl)phenyl)-2,3-dihydrobenzofuran)-7-sulfonamido)thiophene-2-carbonyl)-L-arginine]
Kd (NRP1-b1): 0.68 ± 0.21 µM

Compound: N=C(N)NCCC[C@H](NC(=O)c1sccc1NS(=O)(=O)c1cc(-c2ccccc2CNCc2cc[nH]n2)cc2c1OCC2)C(=O)O [9c, N2-(3-((5-(2-((((1H-Pyrazol-3-yl)methyl)amino)methyl)phenyl)-2,3-dihydrobenzofuran)-7-sulfonamido)thiophene-2-carbonyl)-Nω-((2,2,4,6,7-pentamethyl-2,3-dihydrobenzofuran-5-yl)sulfonyl)-L-arginine]
Kd (NRP1-b1): 2.1 ± 0.04 µM

Compound: CN(C)Cc1cccc(-c2cc3c(c(S(=O)(=O)Nc4ccsc4C(=O)N[C@@H](CCCNC(=N)N)C(=O)O)c2)OCC3)c1 [compound 13, (3-((5-(3-((Dimethylamino)methyl)phenyl)-2,3-dihydrobenzofuran)-7-sulfonamido)thiophene-2-carbonyl)-L-arginine]
clearance and AUC compared with 1 ([2]; IV, in words): notably higher clearance and lower AUC than 1

Other lines, results leading:

Kd (NRP1-b1): 1.45 ± 0.07 µM
Compound: N=C(N)NCCC[C@H](NC(=O)c1sccc1NS(=O)(=O)c1cc(-c2cccc(CNCc3cc[nH]n3)c2)cc2c1OCC2)C(=O)O [10c, N2-(3-((5-(3-((((1H-Pyrazol-3-yl)methyl)amino)methyl)phenyl)-2,3-dihydrobenzofuran)-7-sulfonamido)thiophene-2-carbonyl)-Nω-((2,2,4,6,7-pentamethyl-2,3-dihydrobenzofuran-5-yl)sulfonyl)-L-arginine]

Kd (NRP1-b1): 0.84 ± 0.16 µM
Compound: N=C(N)NCCC[C@H](NC(=O)c1sccc1NS(=O)(=O)c1cc(-c2cccc(CNCc3ncc[nH]3)c2)cc2c1OCC2)C(=O)O [10b, N2-(3-((5-(3-((((1H-Imidazol-2-yl)methyl)amino)methyl)phenyl)-2,3-dihydrobenzofuran)-7-sulfonamido)thiophene-2-carbonyl)-Nω-((2,2,4,6,7-pentamethyl-2,3-dihydrobenzofuran-5-yl)sulfonyl)-L-arginine]

t1/2 ([2]; IV bolus 2 mg/kg): 1.20 h | half-life ([2]; female, BABL/c (so in the source); BALB/c), mouse, plasma, IV): 1.2 h | AUC(0-inf) [2, 6]: 3140 ng·h/mL | Cmax [2, 6]: 2620 ng/mL | Tmax [2, 6]: 4.8 min | Vd [2, 6]: 1.1 L/kg | clearance [2, 6]: 18.4 mL/min/kg | Kd (NRP1-b1): 1.43 ± 0.11 µM
Compound: N=C(N)NCCC[C@H](NC(=O)c1sccc1NS(=O)(=O)c1cc(-c2cccc(CNCc3cn[nH]c3)c2)cc2c1OCC2)C(=O)O [10d, N2-(3-((5-(3-((((1H-Pyrazol-4-yl)methyl)amino)methyl)phenyl)-2,3-dihydrobenzofuran)-7-sulfonamido)thiophene-2-carbonyl)-Nω-((2,2,4,6,7-pentamethyl-2,3-dihydrobenzofuran-5-yl)sulfonyl)-L-arginine]

Kd (NRP1-b1): 0.41 ± 0.09 µM
Compound: N=C(N)NCCC[C@H](NC(=O)c1sccc1NS(=O)(=O)c1cc(-c2cccc(CNCc3ccccn3)c2)cc2c1OCC2)C(=O)O [10e, Nω-((2,2,4,6,7-Pentamethyl-2,3-dihydrobenzofuran-5-yl)sulfonyl)-N2-(3-((5-(3-(((pyridin-2-ylmethyl)amino)methyl)phenyl)-2,3-dihydrobenzofuran)-7-sulfonamido)thiophene-2-carbonyl)-L-arginine]
